We go through 13 compounds from patent US4477456A (priority 1982, dated 1984).

Experiment [1] concerns characteristic stretching or writhing syndrome induced by phenylquinone. The experiment is described as follows: animal or person. The format is in vivo, female white mice. The note with it: for ED50: Mus musculus, po, 0.5 h, read-out: Effect ED50, Oral PQW.
Experiment [2] has as its system anorexigenic effect (milk spots consumed). The experiment is described as follows: animal or person. Format: in vivo, Female CF1 mice. The conditions noted are these: Mus musculus, po, read-out: Anorexigenic Effect, Effective Dose.
Experiment [3] concerns Straub tail induced by morphine. In words: narcotic antagonist test: prevention of Straub tail induced by morphine sulfate. The format is in vivo, Female CF1 S mice. The conditions noted are these: for ED50: Mus musculus, sc, subcutaneous, challenge 30 mg/kg morphine sulfate i.p., read-out: Effect ED50, Subcutaneous Anti-Straub Tail.
Experiment [4] shares this test system. The conditions noted are these: known narcotic antagonists, Blumberg et al.; cited from earlier work.

Broadly, the ED50 is the midpoint of the dose-response relation. For the compound `OCC1CC2CCC13CN(CC1CC1)CCC31c3cccc(O)c3OC21` (single isomer, unassigned) [Example 9, 3-cyclopropylmethyl-5-hydroxymethyl-1,2,3,4,5,6,7,7a-octahydro-4a,7-ethanobenzofuro[3,2-e]isoquinolin-9-ol], the ED50 in experiment [1] was found to be 0.28 mg/kg. For the same compound, in experiment [1] (mouse, in vivo), the “analgesic potency compared with morphine” value is “several times greater potency than morphine”.
In the case of `CC(C)(C)C(C)(O)C1CC2CCC13CN(CC1CC1)CCC31c3cccc(O)c3OC21` (single isomer, unassigned) [Example 11, 3-Cyclopropylmethyl-5-(2-hydroxy-3,3-dimethyl-2-butyl)-1,2,3,4,5,6,7,7a-octahydro-4a,7-ethanobenzofuro[3,2-e]isoquinolin-9-ol], the ED50 in experiment [1] is 5.2 mg/kg.
`COc1cccc2c1OC1C3CCC4(CC3)CN(C)CCC214` (stereo not shown) [Example 1, 9-methoxy-3-methyl-1,2,3,4,5,6,7,7a-octahydro-4a,7-ethanobenzofuro[3,2-e]isoquinoline]: the minimal effective dose in experiment [2] came out at 20 mg/kg. Also, the ED50 in experiment [1] is 20.5 mg/kg; in experiment [3], more than 18 mg/kg.
Taken in the same sequence, the figures for `CN1CCC23c4cccc(O)c4OC2C2CCC3(CC2)C1` (stereo not shown) [Example 2, 3-methyl-1,2,3,4,5,6,7,7a-octahydro-4a,7-ethanobenzofuro[3,2-e]isoquinolin-9-ol] were more than 324 mg/kg, 12 mg/kg and 0.05 mg/kg.
On to `CCCN1CCC23c4cccc(OC)c4OC2C2CCC3(CC2)C1` (stereo not shown) [Example 3, 9-Methoxy-3-propyl-1,2,3,4,5,6,7,7a-octahydro-4a,7-ethanobenzofuro[3,2-e]isoquinoline], for which the ED50 was more than 135 mg/kg in experiment [1] and 0.19 mg/kg in experiment [3].
On to `CCCN1CCC23c4cccc(O)c4OC2C2CCC3(CC2)C1.Cl` (stereo not shown) [Example 4, 3-propyl-1,2,3,4,5,6,7,7a-octahydro-4a,7-ethanobenzofuro[3,2-e]isoquinolin-9-ol hydrochloride], for which the minimal effective dose in experiment [2] stood at 7 mg/kg. The ED50 was found to be 99 mg/kg in experiment [1] and 0.009 mg/kg in experiment [3]. In addition, the “narcotic antagonism capability / antagonist character” value in experiment [3] (Straub tail antagonism, in words) is “pure narcotic antagonists”.
Turning to `Oc1cccc2c1OC1C3CCC4(CC3)CN(CC3CC3)CCC214` (stereo not shown) [Example 6, 3-Cyclopropylmethyl-1,2,3,4,5,6,7,7a-octahydro-4a,7-ethanobenzofuro[3,2-e]isoquinolin-9-ol], in experiment [2], the minimal effective dose stood at 46 mg/kg. Further, the ED50 in experiment [1] is 4.4 mg/kg; in experiment [3], 0.005 mg/kg.
`CC(O)C1CC2CCC13CN(CC1CC1)CCC31c3cccc(O)c3OC21` (stereo not shown) [Example 7, 3-Cyclopropylmethyl-5-(1-hydroxyethyl)-1,2,3,4,5,6,7,7a-octahydro-4a,7-ethanobenzofuro[3,2-e]isoquinolin-9-ol]: the ED50 in experiment [1] was 0.78 mg/kg; in experiment [3] it was 0.08 mg/kg.
For `CC(O)C1CC2C=CC13CN(CC1CC1)CCC31c3cccc(O)c3OC21` (stereo not shown) [Example 8, 3-Cyclopropylmethyl-5-(1-hydroxyethyl)-1,2,3,4,5,6,7,7a-octahydro-4a,7-ethenobenzofuro[3,2-e]isoquinolin-9-ol], in that order: 0.51 mg/kg and 0.024 mg/kg.
In the case of `CN1CC[C@]23c4c5ccc(O)c4O[C@H]2[C@@H](O)C=C[C@H]3[C@H]1C5` [Morphine, reference compound], in experiment [1], the ED50 worked out at 3 mg/kg.
As for `C=CCN1CC[C@]23c4c5ccc(O)c4O[C@H]2[C@@H](O)C=C[C@H]3[C@H]1C5` [Nalorphine], the “prevention of the induction of Straub tail by morphine” value in experiment [4] is “prevent the induction of Straub tail in mice”.
Take `C=CCN1CC[C@]23c4c5ccc(O)c4O[C@H]2C(=O)CC[C@@]3(O)[C@H]1C5` [Naloxone, reference compound]: the minimal effective dose in experiment [2] came out at 4.8 mg/kg. The “prevention of the induction of Straub tail by morphine” value in experiment [4] was “prevent the induction of Straub tail in mice”.
Take `CC(C)=CCN1CCC2(C)c3cc(O)ccc3CC1C2C` (stereo not shown) [Pentazocine, reference compound]: the ED50 in experiment [1] stood at 56 mg/kg; in experiment [3] it was 4 mg/kg.
